Laboratory results taken from BindingDB's records for doi:10.1016/S0960-894X(00)80678-2 (1993).
Non-standard residues stand in square brackets, D forms with d. Residues, ends and D or L forms follow the SMILES beside them. *: point of attachment. 1Nal = N[C@@H](Cc1cccc2ccccc12)C(=O)O; Boc = CC(C)(C)OC(=O)*

How the values were obtained:
[1] = target: Gastrin/cholecystokinin type B receptor (Cavia porcellus); assay: Tested for the inhibition of [3H]pCCK-8 binding to Cholecystokinin type B receptor in guinea pig brain
[2] = target: Gastrin/cholecystokinin type B receptor (Cavia porcellus); assay: as above; remark: listed apart in the source

Question: With `CC(C)(C)OC(=O)N[C@@H](Cc1c[nH]c2ccccc12)C(=O)N[C@@H](Cc1ccccc1)C(=O)N[C@@H](CC(=O)O)C(=O)N[C@@H](Cc1cccc2ccccc12)C(N)=O` [Boc-Trp-Phe-Asp-1Nal-NH2] (Boc-WFD[1Nal]-NH2) as the compound, how does the Ki [1] read?
Answer: The Ki was 71 nM.

Question: For `CCCC[C@@H](NC(=O)CC(=O)N[C@@H](Cc1c[nH]c2ccccc12)C(=O)N(C)[C@@H](CCCC)C(=O)N[C@@H](CC(=O)O)C(=O)N[C@@H](Cc1ccccc1)C(N)=O)NC(=O)[C@H](Cc1ccc(OS(=O)(=O)O)cc1)NC(=O)OC(C)(C)C` [Boc-Tyr(SO3Na)-gNle-mGIy-Trp-(N-Me)Nle-Asp-Phe-NH2], which Ki [2] is on record?
Answer: The Ki was 0.15 nM.

Question: How did the Ki [1] turn out when `CCCC[C@@H](NC(=O)CC(=O)N[C@@H](Cc1c[nH]c2ccccc12)C(=O)N(C)[C@@H](CCCC)C(=O)N[C@@H](CC(=O)O)C(=O)N[C@@H](Cc1ccccc1)C(N)=O)NC(=O)[C@H](Cc1ccc(CS(=O)(=O)O)cc1)NC(=O)OC(C)(C)C` [Boc-Phe(CH2-SO3Na)-gNle-mCIy-Trp-(N-Me)Nle-Asp-Phe-NH2] was run?
Answer: Its Ki is 0.46 nM.
